From patent US5631401A, “Inhibitors of protein farnesyltransferase and squalene synthase” (Abbott Laboratories, priority 1995, dated 1997)

Key:
[1] = target: T1, Rat brain protein farnesyltransferase (Rattus norvegicus, UniProt Q02293+Q04631); assay: In vitro inhibition of protein farnesyltransferase (biotin-lamin substrate, scintillation proximity assay); assay type: biochemical; conditions: for inhibition at 1 µM: 1 μM (footnote *), read-out: % Inhibition at 1 μM (protein farnesyltransferase, values marked *); for inhibition at 10 µM: compared to uninhibited control
T1 construct: The enzyme was purified according to Reiss, Y., et al., Cell, 62: 81-88 (1990), utilizing steps one through three; from tissue; host or cells: rat brain
Description: In vitro inhibition of protein farnesyltransferase may be measured by the following procedure. (Procedures for determination of the inhibition of farnesylation of the oncogene protein Ras are described by Goldstein, et al., J. Biol. Chem., 266: 15575-15578 (1991) and by Singh in U.S. Pat. No. 5,245,061 both of which are incorporated herein by reference.)
Rat brain protein farnesyltransferase activity was measured using the biotin-lamin substrate (which is known to undergo farnesylation in a manner analogous to Ras protein) and radioactive farnesyl diphosphate provided by Amersham Life Science in their commercial scintillation proximity assay kit for the determination of farnesyltransferase. The enzyme was purified according to Reiss, Y., et al., Cell, 62: 81-88 (1990), utilizing steps one through three. The specific activity of the enzyme was approximately 10 nmol substrate farnesylated/mg enzyme/hour. […]

[2] = target: T2, Rat liver microsomal squalene synthase (Rattus norvegicus, UniProt Q02769); assay: In vitro inhibition of squalene synthase (rat liver microsomes, 3H-farnesyl diphosphate); assay type: biochemical; conditions: for inhibition at 1 µM: compared to controls with no test compound; for inhibition at 10 µM: 10 μM (footnote *), read-out: % Inhibition at 10 μM (squalene synthase, values marked *)
T2 construct: Rat liver microsomes, the source of enzyme, were prepared; from tissue; host or cells: rat liver microsomes
T2 sequence (Q02769 1-416): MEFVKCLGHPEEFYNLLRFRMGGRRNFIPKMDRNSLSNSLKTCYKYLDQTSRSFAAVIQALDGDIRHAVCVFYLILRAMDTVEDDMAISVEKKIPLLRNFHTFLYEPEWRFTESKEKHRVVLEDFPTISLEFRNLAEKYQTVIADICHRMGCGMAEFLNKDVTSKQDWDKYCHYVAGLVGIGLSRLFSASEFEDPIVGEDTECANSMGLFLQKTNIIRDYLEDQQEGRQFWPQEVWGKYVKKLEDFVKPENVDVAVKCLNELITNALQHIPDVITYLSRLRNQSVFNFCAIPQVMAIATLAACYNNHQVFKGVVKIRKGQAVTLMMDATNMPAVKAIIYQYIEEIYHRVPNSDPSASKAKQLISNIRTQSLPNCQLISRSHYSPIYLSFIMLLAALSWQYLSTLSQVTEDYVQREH
Description: In vitro inhibition of squalene synthase may be measured by the following procedure.
Rat liver microsomal squalene synthase activity was measured using radioactive farnesyl diphosphate as a substrate and quantitating squalene synthesis by counting the radioactive squalene formed.
Rat liver microsomes, the source of enzyme, were prepared according to the method of Gillies, P. J., et al., Exp. Molec. Pathol. 44: 329-339 (1986), a modification of the procedure of Erickson, S. K., and Cooper, A. D., Metabolism, 29: 991-996 (1980). Approximately 30 μg of microsomal protein was incubated for 10 minutes at 37° C. with 11 μM of ^3 H-farnesyl diphosphate, 49 mCi/mmol, and test compound in the presence of squalene (2 μL), Mg^++, KF, reduced B-nicotinamide adenine dinucleotide phosphate, dithiothreitol, and K2 PO4, pH 7.35, in a total volume of 200 μL. Oxygen was excluded from the closed incubation tube by degassing with nitrogen. The reaction was terminated by the addition of ethanolic KOH and after degassing with N2, the microsomal membranes were solubilized by heating at 60° C. for 30 minutes. The squalene was extracted into hexane, and the squalene was separated from all other radioactive molecules by passage over an activated alumina column. The solution was collected in scintillation vials, evaporated to dryness, liquid scintillation fluid was added, and the radioactivity was determined in a liquid scintillation counter. […]

| SMILES | inhibition at 1 µM [1] [%] | inhibition at 1 µM [2] [%] | inhibition at 10 µM [1] [%] | inhibition at 10 µM [2] [%] |
| --- | --- | --- | --- | --- |
| CCCN(Cc1ccc(Oc2ccccc2)cc1)C(=O)[C@H]1[C@H](C(=O)O)[C@H](C(=O)N(Cc2ccccc2)Cc2ccc(Oc3ccccc3)cc2)[C@H]1C(=O)O (relative stereo) [Example 40, (1α,2β,3β,4α)-1-[N-Propyl-N-(4-phenoxybenzyl)aminocarbonyl]-3-[N-benzyl-N-(4-phenoxybenzyl)aminocarbonyl]cyclobutane-2,4-dicarboxylic acid] | 94 | 49 |  |  |
| CN(Cc1ccc(Oc2ccccc2)cc1)C(=O)[C@H]1[C@H](C(=O)O)[C@H](C(=O)N(C)Cc2ccc(Oc3ccccc3)cc2)[C@H]1C(=O)O [Example 14, (1α,2β,3β,4α)-1,3-Di[N-methyl-N-(4-phenoxybenzyl)aminocarbonyl]cyclobutane-2,4-dicarboxylic acid] |  | 47 | 34 |  |
| CN(Cc1ccc(OCc2ccccc2)cc1)C(=O)[C@H]1[C@H](C(=O)O)[C@H](C(=O)N(C)Cc2ccc(OCc3ccccc3)cc2)[C@H]1C(=O)O [Example 15, (1α,2β,3β,4α)-1,3-Di[N-methyl-N-(4-benzyloxybenzyl)aminocarbonyl]cyclobutane-2,4-dicarboxylic acid] |  |  | 45 | 26 |
| O=C(O)[C@H]1[C@H](C(=O)N(Cc2ccccc2)Cc2ccc(Oc3ccccc3)cc2)[C@H](C(=O)O)[C@H]1C(=O)N(Cc1ccccc1)Cc1ccc(Oc2ccccc2)cc1 [Example 16, (1α,2β,3β,4α)-1,3-Di[N-benzyl-N-(4-phenoxybenzyl)aminocarbonyl]cyclobutane-2,4-dicarboxylic acid] |  | 25 | 98 |  |
| CCN(Cc1ccc(Oc2ccccc2)cc1)C(=O)[C@H]1[C@H](C(=O)O)[C@H](C(=O)N(CC)Cc2ccc(Oc3ccccc3)cc2)[C@H]1C(=O)O [Example 17, (1α,2β,3β,4α)-1,3-Di(N-ethyl-N-(4-phenoxybenzyl)aminocarbonyl)cyclobutane-2,4-dicarboxylic acid] |  | 52 | 49 |  |
| CCCN(Cc1ccc(Oc2ccccc2)cc1)C(=O)[C@H]1[C@H](C(=O)O)[C@H](C(=O)N(CCC)Cc2ccc(Oc3ccccc3)cc2)[C@H]1C(=O)O [Example 18, (1α,2β,3β,4α)-1,3-Di(N-propyl-N-(4-phenoxybenzyl)aminocarbonyl)cyclobutane-2,4-dicarboxylic acid] |  |  | 55 | 89 |
| CN(Cc1cccc(Oc2ccccc2)c1)C(=O)[C@H]1[C@H](C(=O)O)[C@H](C(=O)N(C)Cc2cccc(Oc3ccccc3)c2)[C@H]1C(=O)O [Example 19, (1α,2β,3β,4α)-1,3-Di(N-methyl-N-(3-phenoxybenzyl)aminocarbonyl)cyclobutane-2,4-dicarboxylic acid] |  |  | 80 | 52 |
| O=C(O)[C@H]1[C@H](C(=O)N(Cc2ccc(Oc3ccccc3)cc2)Cc2ccc(Oc3ccccc3)cc2)[C@H](C(=O)O)[C@H]1C(=O)N(Cc1ccc(Oc2ccccc2)cc1)Cc1ccc(Oc2ccccc2)cc1 [Example 20, (1α,2β,3β,4α)-1,3-Di(N,N-di(4-phenoxybenzyl)aminocarbonyl)cyclobutane-2,4-dicarboxylic acid] |  |  |  | 41 |
| CN(Cc1ccc(Oc2ccc(F)cc2)cc1)C(=O)[C@H]1[C@H](C(=O)O)[C@H](C(=O)N(C)Cc2ccc(Oc3ccc(F)cc3)cc2)[C@H]1C(=O)O [Example 21, (1α,2β,3β,4α)-1,3-Di(N-methyl-N-(4-(4-fluorophenoxy)benzyl)aminocarbonyl)cyclobutane-2,4-dicarboxylic acid] |  |  | 27 | 33 |
| CN(Cc1cccc(Oc2ccc(F)cc2)c1)C(=O)[C@H]1[C@H](C(=O)O)[C@H](C(=O)N(C)Cc2cccc(Oc3ccc(F)cc3)c2)[C@H]1C(=O)O [Example 22, (1α,2β,3β,4α)-1,3-Di[N-methyl-N-(3-(4-fluorophenoxy)benzyl)aminocarbonyl]cyclobutane-2,4-dicarboxylic acid] |  |  | 78 | 47 |
| CN(c1ccc(-c2ccccc2)cc1)C(=O)[C@H]1[C@H](C(=O)O)[C@H](C(=O)N(C)c2ccc(-c3ccccc3)cc2)[C@H]1C(=O)O [Example 23, (1α,2β,3β,4α)-1,3-Di(N-methyl-N-biphenylaminocarbonyl)cyclobutane-2,4-dicarboxylic acid] |  |  |  | 25 |
| CC(C)N(Cc1ccc(Oc2ccccc2)cc1)C(=O)[C@H]1[C@H](C(=O)O)[C@H](C(=O)N(Cc2ccc(Oc3ccccc3)cc2)C(C)C)[C@H]1C(=O)O [Example 24] |  |  | 31 | 85 |
| CC(C)CN(Cc1ccc(Oc2ccccc2)cc1)C(=O)[C@H]1[C@H](C(=O)O)[C@H](C(=O)N(Cc2ccc(Oc3ccccc3)cc2)CC(C)C)[C@H]1C(=O)O [Example 25, (1α,2β,3β,4α)-1,3-Di(N-isobutyl-N-(4-phenoxybenzyl)aminocarbonyl)cyclobutane-2,4-dicarboxylic acid] |  | 24 | 59 |  |
| CCCN(Cc1ccc(Cc2ccccc2)cc1)C(=O)[C@H]1[C@H](C(=O)O)[C@H](C(=O)N(CCC)Cc2ccc(Cc3ccccc3)cc2)[C@H]1C(=O)O [Example 26, (1α,2β,3β,4α)-1,3-Di(N-propyl-N-(4-(benzyl)benzyl)aminocarbonyl)cyclobutane-2,4-dicarboxylic acid] |  |  | 69 | 33 |
| CCCCN(Cc1ccc(Oc2ccccc2)cc1)C(=O)[C@H]1[C@H](C(=O)O)[C@H](C(=O)N(CCCC)Cc2ccc(Oc3ccccc3)cc2)[C@H]1C(=O)O [Example 27, (1α,2β,3β,4α)-1,3-Di(N-butyl-N-(4-phenoxybenzyl)aminocarbonyl)cyclobutane-2,4-dicarboxylic acid] |  | 35 | 69 |  |
| C#CCN(Cc1ccc(Oc2ccccc2)cc1)C(=O)[C@H]1[C@H](C(=O)O)[C@H](C(=O)N(CC#C)Cc2ccc(Oc3ccccc3)cc2)[C@H]1C(=O)O [Example 28, (1α,2β,3β,4α)-1,3-Di(N-propargyl-N-(4-phenoxybenzyl)aminocarbonyl)cyclobutane-2,4-dicarboxylic acid] |  |  | 28 | 49 |
| CCCCCN(Cc1ccc(Oc2ccccc2)cc1)C(=O)[C@H]1[C@H](C(=O)O)[C@H](C(=O)N(CCCCC)Cc2ccc(Oc3ccccc3)cc2)[C@H]1C(=O)O [Example 29, (1α,2β,3β,4α)-1,3-Di(N-pentyl-N-(4-phenoxybenzyl)aminocarbonyl)cyclobutane-2,4-dicarboxylic acid] |  |  | 38 | 50 |
| C=CCN(Cc1ccc(Oc2ccccc2)cc1)C(=O)[C@H]1[C@H](C(=O)O)[C@H](C(=O)N(CC=C)Cc2ccc(Oc3ccccc3)cc2)[C@H]1C(=O)O [Example 30, (1α,2β,3β,4α)-1,3-Di(N-allyl-N-(4-phenoxybenzyl)aminocarbonyl)cyclobutane-2,4-dicarboxylic acid] |  |  | 37 | 63 |
| O=C(O)[C@H]1[C@H](C(=O)N(Cc2ccc(Oc3ccccc3)cc2)Cc2ccc3oc4ccccc4c3c2)[C@H](C(=O)O)[C@H]1C(=O)N(Cc1ccc(Oc2ccccc2)cc1)Cc1ccc2oc3ccccc3c2c1 [Example 95, (1α,2β,3β,4α)-1,3-Di[N-(dibenzofuran-2-ylmethyl)-N-(4-phenoxybenzyl)aminocarbonyl]cyclobutane-2,4-dicarboxylic acid] |  |  | 55 |  |
| C[C@H](c1cccc2ccccc12)N(Cc1ccc(Oc2ccccc2)cc1)C(=O)[C@H]1[C@H](C(=O)O)[C@H](C(=O)N(Cc2ccc(Oc3ccccc3)cc2)[C@H](C)c2cccc3ccccc23)[C@H]1C(=O)O [Example 96, (1α,2β,3β,4α)-1,3-Di[N-((2R)-2-(1-naphthyl)eth-2-yl) -N-(4-phenoxybenzyl)aminocarbonyl]cyclobutane-2,4-dicarboxylic acid] | 71 |  |  |  |
